Data from ChEMBL document CHEMBL1148659, “Discovery of potent and orally active MTP inhibitors as potential anti-obesity agents” (Bioorg Med Chem Lett, 2006).

Biological target: T1, Microsomal triglyceride transfer protein large subunit (Homo sapiens) (UniProt P55157)
T1 sequence (whole entry): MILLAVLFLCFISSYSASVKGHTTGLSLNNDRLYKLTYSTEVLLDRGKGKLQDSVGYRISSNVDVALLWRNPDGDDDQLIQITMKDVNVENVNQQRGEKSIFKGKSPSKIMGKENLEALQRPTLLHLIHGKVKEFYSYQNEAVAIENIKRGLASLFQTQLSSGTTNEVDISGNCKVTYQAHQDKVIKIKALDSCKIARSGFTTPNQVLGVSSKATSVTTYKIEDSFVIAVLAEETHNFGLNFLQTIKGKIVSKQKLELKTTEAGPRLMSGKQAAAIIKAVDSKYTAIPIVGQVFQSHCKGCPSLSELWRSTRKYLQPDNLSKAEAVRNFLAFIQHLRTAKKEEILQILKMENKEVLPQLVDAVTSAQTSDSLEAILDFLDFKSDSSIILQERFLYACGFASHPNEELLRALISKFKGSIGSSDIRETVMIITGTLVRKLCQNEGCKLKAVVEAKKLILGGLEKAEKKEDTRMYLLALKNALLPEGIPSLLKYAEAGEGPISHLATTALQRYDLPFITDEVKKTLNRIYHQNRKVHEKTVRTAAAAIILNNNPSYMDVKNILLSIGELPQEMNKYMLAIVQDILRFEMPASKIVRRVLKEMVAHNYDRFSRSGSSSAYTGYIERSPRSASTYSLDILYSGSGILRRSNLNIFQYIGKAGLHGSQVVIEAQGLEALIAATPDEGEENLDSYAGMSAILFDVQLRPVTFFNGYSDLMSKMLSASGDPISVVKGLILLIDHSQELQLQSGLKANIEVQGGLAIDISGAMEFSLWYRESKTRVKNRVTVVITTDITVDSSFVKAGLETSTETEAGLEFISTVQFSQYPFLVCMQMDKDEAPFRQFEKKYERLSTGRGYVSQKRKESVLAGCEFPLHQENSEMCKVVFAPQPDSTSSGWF
Experiment: Inhibition of intestinal MTP in rat by murine gut retention assay
Format: functional
Conditions: target entry is the homologue from another species

Row | ED25 | Structure (SMILES)
1 | 3 mg/kg | Cc1cc(C(=O)N[C@H](C(=O)N2CCCC2)c2ccccc2)ccc1NC(=O)c1ccccc1-c1ccc(C(F)(F)F)cc1
2 | 6.93 mg/kg | O=C(N[C@H](C(=O)N1CCCC1)c1ccccc1)c1ccc(NC(=O)c2ccccc2-c2ccc(C(F)(F)F)cc2)nc1
